Experiments:
qC10ORF99 promoter = assay: Luciferase reporter assay, Japanese quail C10ORF99 promoter in HEK293 cells; format: cell-based; details: promoter-pGL4.14 (300 ng), sodium propionate or sodium acetate in serum-free medium for 12 h, normalized to β-galactosidase, vs parental PGL4.14 plasmid, n = 3
cGPR15‐P246K = assay: Intracellular calcium assay, reverse mutant cGPR15‐P246K; format: cell-based, Lepisosteus oculatus/Scleropages formosus; details: CHO cells, Fluo-4 calcium assay; peptide 10 nM
cGPR15‐A283L = assay: Intracellular calcium assay, reverse mutant cGPR15‐A283L; format: cell-based, Latimeria chalumnae; details: CHO cells, Fluo-4 calcium assay; peptide 10 nM

CC(=O)O [acetate]
luciferase activity of the promoter construct (qC10ORF99 promoter): significantly increased

CCC(=O)O [propionate]
luciferase activity of the promoter construct (qC10ORF99 promoter): significantly increased

AAPSPLFVPGPLPQL [qC10ORF99]
activation of the mutant receptor based on Ca2+ measurements (cGPR15‐P246K): activated
activation of the mutant receptor based on Ca2+ measurements (cGPR15‐A283L): activated

— article PMC8892231 (EMBO Reports, 2021)
